Consider eight molecules from US20240190904A1, “Heteroaryl compounds as inhibitors of RIP2 kinase, composition and application thereof” (Accro Bioscience (HK) Limited, priority 2021, published 2024).

SMILES strings stand for the structures. In brackets after ≈: the same amount, converted by molar mass.

One series addresses RIP2 kinase (Homo sapiens (Human), UniProt O43353). Nature of the series: Binding affinity assay (Kd). As for the experimental part:
For most assays, kinase-tagged T7 phage strains were prepared in an E. coli host derived from the BL21 strain. E. coli were grown to log-phase and infected with T7 phage and incubated with shaking at 32° C. until lysis. The lysates were centrifuged and filtered to remove cell debris. The remaining kinases were produced in HEK-293 cells and subsequently tagged with DNA for qPCR detection. Streptavidin coated magnetic beads were treated with biotinylated small molecule ligands for 30 minutes at room temperature to generate affinity resins for kinase assays. The liganded beads were blocked with excess biotin and washed with blocking buffer (SeaBlock (Pierce), 1% BSA, 0.05% Tween 20, 1 mM DTT) to remove unbound ligand and to reduce non-specific binding. Binding reactions were assembled by combining kinases, liganded affinity beads, and test compounds in 1× binding buffer (20% SeaBlock, 0.17×PBS, 0.05% Tween 20, 6 mM DTT). Test compounds were prepared as 111× stocks in 100% DMSO. Kds were determined using an 11-point 3-fold compound dilution series with three DMSO control points. All compounds for Kd measurements are distributed by acoustic transfer (non-contact dispensing) in 100% DMSO. The compounds were then diluted directly into the assays such that the final concentration of DMSO was 0.9%. All reactions performed in polypropylene 384-well plate. Each was a final volume of 0.02 ml. The assay plates were incubated at room temperature with shaking for 1 hour and the affinity beads were washed with wash buffer (1×PBS, 0.05% Tween 20). The beads were then re-suspended in elution buffer (1×PBS, 0.05% Tween 20, 0.5 μM nonbiotinylated affinity ligand) and incubated at room temperature with shaking for 30 minutes. The kinase concentration in the eluates was measured by qPCR.
An 11-point 3-fold serial dilution of each test compound was prepared in 100% DMSO at 100× final test concentration and subsequently diluted to 1× in the assay (final DMSO concentration=1%). Most Kds were determined using a compound top concentration=30,000 nM. If the initial Kd determined was <0.5 nM (the lowest concentration tested), the measurement was repeated with a serial dilution starting at a lower top concentration.
Binding constants (Kds) were calculated with a standard dose-response curve using the Hill equation: […]
The Hill Slope was set to −1.
Curves were fitted using a non-linear least square fit with the Levenberg-Marquardt algorithm.

Series [1] has as its system IL-8 in THP-1 induced by MDP. Kind of series: THP-1 cell assay, IL-8 ELISA after MDP. Type of series: cell-based. Particulars: Homo sapiens; test compounds 10 nM; THP-1, MDP induced. As for the experimental part:
Acute monoblastic and monocytic leukemia (THP-1) was obtained from ATCC (item NO. TIB-202™). The temperature of the sterile incubator is 37˜38° C., the osmotic pressure is 260˜320 mmol/L, the pH range is 7.2˜7.4, and the ratio of carbon dioxide gas is 5%.
Cells were seeded in 96-well plates. After an hour, cells were incubated with test compounds for 2 hours. MDP (10 μL) was added and incubated for 6 hours. The samples were centrifuged (3000 rmp/min) for 5 minutes. The concentration of IL-8 in the supernatants was detected by IL-8 ELISA.

A short description of series [2]: Thermodynamic solubility test. Type of series: physicochemical. To be noted: thermodynamic from solid; FaSSIF pH 6.5, thermodynamic. As for the experimental part:
• a. Add assay buffer into compound powder to make 4 mg/mL solution. • b. Sample tubes are shaken for 1 hour (1000 rpm), then equilibrated over night at room temperature. • c. Samples are centrifuged (10 min-12000 rpm) to precipitate un-dissolved particles. • d. Supernatants are transferred to new tubes. • e. Concentrations of the supernatants after centrifugation are determined by LCMSMS detection.

Series [3] in a line: Protein binding test (dialysis), human. Type of series: in vitro ADME. To be noted: for fraction unbound at 5 h, 1 μM: human plasma. The method, then:
(§1) • 1. Spiking Solutions of Test and Reference Compounds • 1.1 Solution A (0.5 mM): Add 10 μL of 10 mM stock solution into 190 μL of DMSO. • 1.2 Solution B (0.02 mM): Add 8 μL of Solution A into 192 μL of 0.05 M sodium phosphate buffer. The final DMSO concentration in Solution B is 4%. • 2. Preparation of Test and Reference Compounds • 2.1 Preload a 96-well plate with 380 μL aliquots of plasma in the wells designated for plasma and buffer, respectively. • 2.2 Spike 20 μL of Solution B (0.02 mM of test and reference compounds) into the pre-loaded plasma in the 96-well plate. The final test concentration is 1 μM containing 0.2% DMSO. • 3. Dialysis Sample Loading • 3.1 Preparing plasma against buffer system (duplicate): Apply aliquots of 100 μL of blank dialysis buffer to the receiver side of dialysis chambers. Then apply aliquots of 100 μL of the plasma spiked with test and reference compounds to the donor side of the dialysis chambers. • 3.2 Preparing T0 plasma samples for initial concentrations (duplicate): • 3.2.1 Aliquot 25 μL of the plasma spiked with test and reference compounds into a 96-well sample preparation plate as T0 plasma samples • 3.2.2 Mix the aliquots with same volume of blank buffer (50:50, v/v). • 3.2.3 Quench the samples with 200 μL of acetonitrile containing internal standard (IS). • 3.3 Cover the dialysis block with a plastic lid and place the entire apparatus in a shaker (60 rpm) for 5 hours at 37° C. • 3.4 Preparing dialyzed samples after 5-hour incubation: • 3.4.1 Aliquot 25 μL from both the donor sides and receiver sides of the dialysis apparatus into new sample preparation plates and mix the aliquots with same volume of opposite matrixes (blank buffer to plasma and vice versa). • 3.4.2 Quench the samples with 200 μL acetonitrile containing internal standard (IS). Vortex all the samples (from 0 h and 5 h) at 600 rpm for 10 min followed by centrifugation at 5594 g for 15 minutes (ThermoMultifuge×3R). • 3.4.3 Transfer 50 μL of the supernatants to a new 96-well plate and mix the samples with 50 μL of Milli-Q water. Cover the sample plate and store it in a freezer (−20° C.) until LC/MS/MS analysis.

Series [4] can be described thus: Protein binding test (dialysis), rat. It counts as in vitro ADME. To be noted: for fraction unbound at 5 h, 1 μM: rat plasma. As for the experimental part:
as §1

Series [5] can be described thus: Protein binding test (dialysis), dog. Type of series: in vitro ADME. To be noted: for fraction unbound at 5 h, 1 μM: dog plasma. The method, then:
as §1

The subject of a further series is MDP induced peritonitis. Nature of the series: MDP (muramyl dipeptide) induced peritonitis, IL-6 by ELISA. It counts as in vivo. To be noted: mice, gavage, same dosage as GSK2983559 (10 mg/kg), 3 hours post MDP. The method, then:
Mice were divided into four groups Including normal group, DMSO group, positive control group (GSK2983559) and compound group. Mice were dosed by gavage with either GSK2983559 at 10 mg/kg or candidate compounds at 3, 10 mg/kg 30 minutes prior to MDP injection (100 μg/mouse, ip). At 3 hours post MDP administration, the blood sample was collected from ocular vein after anesthesia. IL-6 levels were detected by ELISA.

RIP2 kinase, sequence (O43353 whole entry): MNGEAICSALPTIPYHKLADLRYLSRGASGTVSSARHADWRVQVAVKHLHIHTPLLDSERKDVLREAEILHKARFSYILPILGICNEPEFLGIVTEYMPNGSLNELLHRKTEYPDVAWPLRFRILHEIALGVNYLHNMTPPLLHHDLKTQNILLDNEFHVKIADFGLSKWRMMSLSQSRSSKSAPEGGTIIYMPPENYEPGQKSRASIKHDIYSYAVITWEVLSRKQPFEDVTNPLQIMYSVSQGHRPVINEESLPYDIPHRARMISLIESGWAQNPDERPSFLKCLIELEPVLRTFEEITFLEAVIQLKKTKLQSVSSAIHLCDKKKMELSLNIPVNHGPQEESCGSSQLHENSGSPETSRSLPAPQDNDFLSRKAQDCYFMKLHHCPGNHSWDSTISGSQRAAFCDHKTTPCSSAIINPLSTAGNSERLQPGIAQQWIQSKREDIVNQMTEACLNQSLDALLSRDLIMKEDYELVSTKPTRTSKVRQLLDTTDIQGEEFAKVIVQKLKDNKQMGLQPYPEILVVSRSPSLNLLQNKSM

On RIP2 kinase, `COCCOc1cc2nccc(Nc3ccc4scnc4c3)c2cc1P(C)(C)=O` [A8] gave a Kd of 2 nM. Moreover, the inhibition at 0.01 µM in series [1] is 51%. Further, the solubility in series [2] was found to be 1.04 mM (≈ 444 µg/mL).
For `CP(C)(=O)c1cc2c(Nc3ccc4scnc4c3)ccnc2cc1OCCO` [A7, (4-(benzo[d]thiazol-5-ylamino)-7-(2-hydroxyethoxy)quinolin-6-yl)dimethylphosphine oxide], in that order: 5.8 nM, 25% and 5.31 mM (≈ 2200 µg/mL).
As to `CP(C)(=O)c1cc2c(Nc3ccc4scnc4c3)ccnc2cc1OC1COC1` [A16], the figures for the fraction unbound at 5 h, 1 μM in series [3], in series [4] and in series [5] were 0.195, 0.069 and 0.145, respectively. In addition, the Kd at RIP2 kinase was 3.8 nM.
`CP(C)(=O)c1cc2c(Nc3ccc4scnc4c3)ccnc2cc1OC(F)(F)F` [A24]: the “protein binding in human (in words)” value in series [3] (human) is “high protein binding”. In addition, the fraction unbound at 5 h, 1 μM in series [3] was 0.013; in series [4], 0.001; in series [5], 0.01. Moreover, the “protein binding in rat (in words)” value in series [4] (rat) is listed as “high protein binding”. This molecule came in with a Kd on RIP2 kinase of 5.2 nM. Besides, the “inhibition of the level of IL-6 compared with positive control (in words)” value with MDP induced peritonitis is on record as “more effectively than positive control GSK2983559”. Also, the “protein binding in dog (in words)” value in series [5] (dog) was “high protein binding”.
Turning to `COc1cc2nccc(Nc3ccc4scnc4c3)c2cc1P(C)(C)=O` [A6], the fraction unbound at 5 h, 1 μM in series [3] was 0.124; in series [4] it was 0.019; in series [5] it was 0.138. Besides, the Kd at RIP2 kinase stood at 3.1 nM. Besides, the “inhibition of the level of IL-6 compared with positive control (in words)” value with MDP induced peritonitis is reported as “more effectively than positive control GSK2983559”. The molecule also registered an inhibition at 0.01 µM in series [1] of 50%. In series [2], this molecule had a solubility of 6.12 mM (≈ 2340 µg/mL).
With `CP(C)(=O)c1cc2c(Nc3ccc4scnc4c3)ccnc2cc1O[C@H]1CCOC1` [A14], the figures for the fraction unbound at 5 h, 1 μM in series [3], in series [4] and in series [5] were 0.177, 0.073 and 0.165, respectively. Moreover, binding on RIP2 kinase was characterised by a dissociation constant (Kd) of 3 nM.
As to `CP(C)(=O)c1cc2c(Nc3ccc4scnc4c3)ccnc2cc1O[C@@H]1CCOC1` [A15], the figures for the fraction unbound at 5 h, 1 μM in series [3], in series [4] and in series [5] were 0.188, 0.059 and 0.129, respectively. On RIP2 kinase, this molecule gave a Kd of 3 nM.
As for `CC1(COc2cc3nccc(Nc4ccc5scnc5c4)c3cc2P(C)(C)=O)COC1` [A9], the Kd on RIP2 kinase was found to be 2.1 nM. The same molecule returned an inhibition at 0.01 µM in series [1] of 55%. The molecule further registered a solubility in series [2] of 0.283 mM (≈ 128 µg/mL).
